According to patent publication US9409952B2, “Peptide-compound cyclization method” (Chugai Seiyaku Kabushiki Kaisha, priority 2011, dated 2016):
Read-outs that look alike come from different tables or passages of the source. Starred links: 1 amine or outer side, 2 acyl side, 3 side chain; linkers in the order of their positions; H or OH if unused. Positions of bridges follow the written chain, without caps; N, C: chain ends. Non-standard residues stand in square brackets, D forms with d. Residues, ends and D or L forms follow the SMILES beside them. ξ: configuration not given here. *: point of attachment. NMeF = CN[C@@H](Cc1ccccc1)C(=O)O; NMeGABA = CN(CCCC(=O)[*:2])[*:1]; NMeI = CC[C@H](C)[C@H](NC)C(=O)O; NMeβAla = CN(CCC(=O)[*:2])[*:1]; NMeξIle = CC[C@H](C)C(NC)C(=O)O; NMeL = CN[C@@H](CC(C)C)C(=O)O; Phg = N[C@H](C(=O)O)c1ccccc1; NMeV = CN[C@H](C(=O)O)C(C)C; NMeA = CN[C@@H](C)C(=O)O; Piperidide = C1CCN(*)CC1; dNMeA = CN[C@H](C)C(=O)O; β3hA = C[C@H](N)CC(=O)O; Sar = CNCC(=O)O; tBu = CC(C)(C)*

Assays:
[1] = PAMPA (parallel artificial membrane permeability assay); type: in vitro ADME; conditions: for Papp at 18 hours, 50 µM: PAMPA
Outline: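 Artificial membrane was 10% (w/v) egg lecithin plus 0.5% (w/v) cholesterol in dodecane on a PVDF filter. A 10 mM DMSO stock was added at 0.5% (v/v) to donor buffer (50 mM MOPSO, pH 6.5, 5.0% glycocholic acid). After 18 h at 37 °C, LC/MS or LC/UV gave donor and acceptor levels for Pe.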

[2] = Metabolic stability in human hepatic microsome; type: in vitro ADME; conditions: microsomes
[3] = membrane permeation rate (Pe), 50 mM MOPSO buffer pH 6.5 with 5.0% glycocholic acid, 37° C., 18 hours, read-out: iPAMPA Pe
[4] = pH 7.4, human hepatic microsome, NADPH(+), read-out: CL NADPH(+)

SMILES | Papp at 18 hours, 50 µM [1, 3] [nm/s] | microsomal CLint at 1 uM [2, 4] [µL/min/mg] | Papp at 18 hours, 50 µM ([1]; pH 6.5) [nm/s] | microsomal CLint at 1 uM ([2]; human, pH 7.4, CL NADPH(+)) [µL/min/mg] | iPAMPA Pe ([1]; membrane permeation rate (Pe), 50 mM MOPSO buffer pH 6.5 with 5.0% glycocholic acid, 37° C., 18 hours)
CC(C)C[C@H]1NC(=O)C[C@@H](C(=O)N2CCCCC2)NC(=O)[C@H](CC(C)C)N(C)C(=O)[C@H](Cc2ccccc2)NC(=O)[C@H](CC(C)C)N(C)C(=O)[C@H](C)N(C)C(=O)[C@H](Cc2c[nH]cn2)NC(=O)[C@H](CC(C)C)N(C)C(=O)[C@H](Cc2ccccc2)N(C)C1=O [DP-904] ([dL][NMeF][NMeL]H[NMeA][NMeL]F[NMeL]D-Piperidide; lactam N-9) | 78 | 89 |  |  | 
CC(C)C[C@H]1C(=O)N[C@@H](Cc2ccccc2)C(=O)N(C)[C@@H](C(C)C)C(=O)N[C@@H]([C@@H](C)O)C(=O)N[C@H](C(=O)N(C)[C@@H](Cc2ccccc2)C(=O)N(C)[C@@H](Cc2ccccc2)C(=O)N[C@@H](C)C(=O)N2CCCCC2)CC(=O)N(C)CCC(=O)N[C@@H](C(C)C)C(=O)N(C)[C@@H](CC(C)C)C(=O)N(C)[C@@H](Cc2ccccc2)C(=O)NCC(=O)N1C [DP-298] ([NMeβAla]V[NMeL][NMeF]G[NMeL]F[NMeV]TD[NMeF][NMeF]A-Piperidide; lactam N-10) |  |  | 70 | 39 | 
CC(C)C[C@H]1C(=O)NCC(=O)N[C@H](C(=O)N2CCCCC2)CC(=O)N[C@@H](c2ccccc2)C(=O)N[C@@H]([C@@H](C)O)C(=O)N(C)[C@@H](C)C(=O)N(C)[C@@H](Cc2ccccc2)C(=O)N(C)[C@@H](Cc2ccccc2)C(=O)N[C@@H](COC(C)(C)C)C(=O)N1C [DP-563] ([Phg]T[NMeA][NMeF][NMeF]S(tBu)[NMeL]GD-Piperidide; lactam N-9) | 350 | 111 |  |  | 
CC(C)C[C@@H](C(=O)N[C@@H](C)C(=O)N1CCCCC1)N(C)C(=O)[C@@H]1CC(=O)N[C@H](C(C)C)C(=O)N[C@@H]([C@@H](C)O)C(=O)N(C)[C@@H](C)C(=O)N(C)[C@@H](Cc2ccccc2)C(=O)N(C)[C@@H](Cc2ccccc2)C(=O)N[C@@H](COC(C)(C)C)C(=O)N(C)[C@@H](CC(C)C)C(=O)NCC(=O)N1 [DP-575] ([dV]T[NMeA][NMeF][NMeF]S(tBu)[NMeL]GD[NMeL]A-Piperidide; lactam N-9) | 280 | 70 |  |  | 
C=C1CCC(=O)N[C@@H](CC(C)C)C(=O)N2CCC[C@H]2C(=O)N(C)[C@@H](C(C)C)C(=O)N[C@@H](Cc2ccccc2)C(=O)N(C)CC(=O)N(C)[C@@H](CC(C)C)C(=O)N[C@@H](C)C(=O)N(C)[C@@H]([C@@H](C)CC)C(=O)N[C@H](C(=O)N2CCCCC2)Cc2ccc1cc2 [DP-880] | 340 | 490 |  |  | 
CC(C)C[C@H]1C(=O)N[C@@H]([C@@H](C)O)C(=O)N(C)[C@@H](C)C(=O)N(C)[C@@H](CC(C)C)C(=O)N(C)[C@@H](Cc2ccccc2)C(=O)N[C@@H](COC(C)(C)C)C(=O)N[C@H](C(=O)N2CCCCC2)CC(=O)N(C)CCCC(=O)N(C)[C@@H](C)C(=O)N1C [DP-130] ([NMeGABA][NMeA][NMeL]T[NMeA][NMeL][NMeF]S(tBu)D-Piperidide; lactam N-9) | 210 | 76 |  |  | 
CC[C@H](C)[C@H]1C(=O)N[C@@H](COC(C)(C)C)C(=O)N(C)[C@@H](Cc2ccccc2)C(=O)N(C)[C@@H](C(C)C)C(=O)N[C@@H](C)CC(=O)N(C)[C@@H](C)C(=O)N(C)[C@@H](Cc2ccccc2)C(=O)N[C@@H](CC(C)C)C(=O)N(C)[C@@H](CC(C)C)C(=O)N[C@@H]([C@@H](C)O)C(=O)N(C)CC(=O)N1C [DP-771] (cyclo(L[NMeL]T[Sar][NMeI]S(tBu)[NMeF][NMeV][β3hA][NMeA][NMeF])) |  |  | 470 | 228 | 
CC(C)C[C@@H]1NC(=O)[C@H](CC(C)C)N(C)C(=O)CCN(C)C(=O)C[C@@H](C(=O)N(C)[C@@H](Cc2ccccc2)C(=O)N[C@@H](C)C(=O)N2CCCCC2)NC(=O)[C@H](C)N(C)C(=O)[C@H]([C@@H](C)O)NC(=O)[C@H](Cc2ccccc2)NC(=O)[C@H](CC(C)C)N(C)C(=O)CNC(=O)[C@H](Cc2ccccc2)N(C)C1=O [DP-446] ([NMeβAla][NMeL]L[NMeF]G[NMeL]FT[NMeA]D[NMeF]A-Piperidide; lactam N-10) | 400 | 104 |  |  | 
CC[C@H](C)[C@@H]1NC(=O)[C@H](CC(C)C)NC(=O)[C@@H](C)N(C)C(=O)C[C@@H](C(=O)N2CCCCC2)NC(=O)[C@H](C(C)C)N(C)C(=O)[C@H](CC(C)C)NC(=O)[C@H](Cc2ccccc2)NC(=O)[C@H]([C@@H](C)O)NC(=O)[C@H](CC(C)C)NC(=O)CN(C)C(=O)[C@H](C)NC1=O [DP-475] ([dNMeA]LIA[Sar]LTFL[NMeV]D-Piperidide; lactam N-11) | 160 | 35 |  |  | 
CC(C)C[C@H]1C(=O)N(C)[C@@H](C(C)C)C(=O)N[C@@H](C(C)C)C(=O)N[C@H](C(=O)N(C)[C@@H](Cc2ccccc2)C(=O)N[C@@H](C)C(=O)N2CCCCC2)CC(=O)N[C@@H](C)C(=O)N[C@@H](Cc2ccccc2)C(=O)N(C)[C@@H](CC(C)C)C(=O)N[C@@H]([C@@H](C)O)C(=O)N(C)[C@@H](Cc2ccccc2)C(=O)NCC(=O)N1C [DP-187] (AF[NMeL]T[NMeF]G[NMeL][NMeV]VD[NMeF]A-Piperidide; lactam N-10) | 430 | 22 |  |  | 
CC(C)C[C@H]1C(=O)NCC(=O)N(C)[C@@H](Cc2ccccc2)C(=O)N(C)[C@@H](Cc2ccccc2)C(=O)N[C@@H]([C@@H](C)O)C(=O)N(C)[C@@H](C)C(=O)N[C@H](C(=O)N(C)[C@@H](Cc2ccccc2)C(=O)N(C)[C@@H](Cc2ccccc2)C(=O)N[C@@H](C)C(=O)N2CCCCC2)CC(=O)N(C)CCCC(=O)N[C@@H](C(C)C)C(=O)N1C [DP-402] ([NMeGABA]V[NMeL]G[NMeF][NMeF]T[NMeA]D[NMeF][NMeF]A-Piperidide; lactam N-9) |  |  | 240 | 185 | 
CC[C@H](C)C1C(=O)N[C@H](C(=O)N2CCCCC2)CC(=O)N(C)CC(=O)N(C)CC(=O)N[C@@H]([C@@H](C)O)C(=O)N(C)[C@@H](Cc2ccccc2)C(=O)N(C)[C@@H](CC(C)C)C(=O)N[C@@H](COC(C)(C)C)C(=O)N(C)[C@@H](CC(C)C)C(=O)N1C (stereo partly drawn) [DP-60] ([Sar][Sar]T[NMeF][NMeL]S(tBu)[NMeL][NMeξIle]D-Piperidide; lactam N-9) |  |  | 420 | 145 | 
CC[C@H](C)[C@@H]1NC(=O)[C@H](CC(C)C)N(C)C(=O)[C@H](CC(C)C)N(C)C(=O)[C@@H](C(C)C)NC(=O)C[C@H](C)NC(=O)[C@H](CC(C)C)N(C)C(=O)[C@H](C)N(C)C(=O)[C@H]([C@@H](C)O)NC(=O)[C@H](CC(C)C)N(C)C(=O)[C@H](C)N(C)C1=O [DP-813] (cyclo(I[NMeA][NMeL]T[NMeA][NMeL][β3hA][dV][NMeL][NMeL])) | 300 | 195 |  |  | 
CC[C@H](C)[C@H]1C(=O)N[C@@H](C)C(=O)N(C)[C@@H](CC(C)C)C(=O)N(C)[C@@H](Cc2ccccc2)C(=O)N[C@@H]([C@@H](C)O)C(=O)N(C)[C@@H](Cc2ccccc2)C(=O)N(C)[C@@H](CC(C)C)C(=O)N(C)[C@@H](CC(C)C)C(=O)N[C@H](C(=O)N2CCCCC2)CC(=O)N(C)CC(=O)N1C [DP-147] ([Sar][NMeI]A[NMeL][NMeF]T[NMeF][NMeL][NMeL]D-Piperidide; lactam N-10) |  |  | 290 | 147 | 
CC[C@H](C)[C@@H]1NC(=O)[C@H](CC(C)C)NC(=O)[C@H](C(C)C)NC(=O)[C@H](CC(C)C)N(C)C(=O)[C@H](CC(C)C)NC(=O)[C@H](Cc2ccccc2)NC(=O)[C@H]([C@@H](C)O)NC(=O)[C@H](CC(C)C)NC(=O)[C@H](Cc2ccccc2)NC(=O)[C@@H](C)N(C)C(=O)C[C@@H](C(=O)N2CCCCC2)NC1=O [DP-416] ([dNMeA]FLTFL[NMeL]VLID-Piperidide; lactam N-11) | 2.3 | 20 |  |  | 
CC(C)C[C@H]1C(=O)N[C@@H](C(C)C)C(=O)N(C)[C@@H](C)C(=O)N(C)[C@@H](C)C(=O)N[C@@H]([C@@H](C)O)C(=O)N(C)[C@@H](C)C(=O)N[C@H](C(=O)N(C)[C@@H](Cc2ccccc2)C(=O)N(C)[C@@H](Cc2ccccc2)C(=O)N[C@@H](C)C(=O)N2CCCCC2)CC(=O)N(C)[C@H](C)C(=O)N(C)[C@@H](Cc2ccccc2)C(=O)N1C [DP-400] ([dNMeA][NMeF][NMeL]V[NMeA][NMeA]T[NMeA]D[NMeF][NMeF]A-Piperidide; lactam N-9) | 150 | 24 |  |  | 
CC(C)C[C@H]1C(=O)N[C@H](C(=O)N(C)[C@@H](Cc2ccccc2)C(=O)N[C@@H](C)C(=O)N2CCCCC2)CC(=O)N(C)[C@@H](C)C(=O)N[C@@H](Cc2ccccc2)C(=O)N(C)[C@@H](C(C)C)C(=O)N(C)[C@@H](C)C(=O)N[C@@H]([C@@H](C)O)C(=O)N(C)[C@@H](C)C(=O)N(C)[C@@H](CC(C)C)C(=O)N[C@@H](C)C(=O)N1C [DP-296] ([NMeA]F[NMeV][NMeA]T[NMeA][NMeL]A[NMeL]D[NMeF]A-Piperidide; lactam N-10) |  |  | 150 | 64 | 
CC[C@H](C)[C@H]1C(=O)NCC(=O)N(C)[C@@H](CC(C)C)C(=O)N[C@@H]([C@@H](C)O)C(=O)N2CCC[C@H]2C(=O)N[C@@H](Cc2ccccc2)C(=O)N[C@H](C(=O)N2CCCCC2)CC(=O)N(C)[C@@H](C)C(=O)N[C@@H](Cc2ccccc2)C(=O)N(C)[C@@H](CC(C)C)C(=O)N[C@@H](CC(C)C)C(=O)N1C [DP-236] ([NMeA]F[NMeL]L[NMeI]G[NMeL]TPFD-Piperidide; lactam N-11) |  | 79 |  |  | 7.0E−05
CC(C)C[C@@H]1NC(=O)[C@H](CC(C)C)N(C)C(=O)[C@H](C)NC(=O)[C@H](C(C)C)N(C)C(=O)[C@H](C)N(C)C(=O)CN(C)C(=O)[C@H]([C@@H](C)O)NC(=O)[C@H](Cc2ccccc2)NC(=O)[C@H](CC(C)C)N(C)C(=O)[C@@H](C)N(C)C(=O)C[C@@H](C(=O)N2CCCCC2)NC1=O [DP-243] ([dNMeA][NMeL]FT[Sar][NMeA][NMeV]A[NMeL]LD-Piperidide; lactam N-11) | 84 | 32 |  |  | 
